Assay results taken from patent US4313943A, “7-Chloro-2,3-dihydro-5-phenyl-1-propargyl-1H-1,4-benzodiazepine-2-one, and a pharmaceutical composition thereof” (priority 1972, dated 1982).
“Also recorded” adds a separate entry of the source.

Key:
[1] = Comparative tranquilizing effects: four plates test; assay type: in vivo; conditions: for ED50: 1 h, 60 min. after administration, doses between 0.5 and 4 mg/kg, confidence limits for P = 0.05; for Duration of effect: compounds 1 and 4 compared
Description: The method utilized was the 4 plates test of J. R. Boissier, et al (European J. of Pharm. 1968, Vol. 4, pages 145-151).

[2] = Rotarod test, equilibrium (Table 6); assay type: in vivo; conditions: for changes in equilibrium / motor coordination: in vivo
[3] = Convulsions induced by pentamethylenetetrazol in rats; assay type: in vivo; conditions: for ED50: Rattus norvegicus, oral, protection against pentamethylenetetrazol, read-out: ED50 (and C.L.) (converted)
Description: The method utilized was according to the method published by Everett and Richards (1944) and Banziger (1965). The pentamethylenetetrazol was given subcutaneously (125 mg/kg) and the test compounds were given orally suspended in a 1% carboxymethyl cellulose solution.

[4] = Conditioned emotional response (CER), tone paired with foot shock; assay type: in vivo
Description: Conditioned emotional response (CER) in test animals was conventionally determined by a tone paired with a foot shock which was presented to hungry animals trained to press a lever for intermittent food reinforcement. After a few such pairings, the presence of the tone alone was sufficient to disrupt the lever pressing behavior. CER is considered a model of behavior anxiety in animals. […] Thus, a 1.25 mg/kg os of compounds 1 and 4 respectively produced about a 350 and 630% increase in CER while a 5 mg/kg os of compounds 1 and 4 respectively produced about 920 and 1600% increase.

[5] = Postural tonus in restrained animals; assay type: in vivo; conditions: for reduction in postural tonus: more pronounced effect of compound 4 especially at 30 mg/kg
Description: The final observations were concerned with the influence of the test compounds on postural tonus. Evaluationg postural tonus in the animals kept in restraint cages was somewhat difficult. It was possible to judge this aspect by pulling the hind quarters of the animals out of the cage and observing whether the animals was capable of returning spontaneously to its position inside the cage, which control animals were able to do immediately.

[6] = ECoG and sedation in test animals free to move; assay type: in vivo; conditions: for duration of the ECoG effect / first signs of sedation: 7.5 mg/kg intragastric, animals free to move; for duration of ECoG effects (three compounds compared): unrestricted animals, compound 3 at 10 mg/kg
Description: Some test animals were kept in restraint cases placed in a relatively soundproof room and some were left free to move in metal cases measuring 40×50×30 cm, which were also kept in a relatively quiet environment.
In the test animals which were free to move, the first signs of sedation produced by the intragastric administration of 7.5 mg/kg of compounds 1 and 4 appeared, respectively, at 16 minutes (compound 1) and at 8 minutes (compound 4). […] The duration of the effect was, however, shorter, not exceeding 3 hours under these conditions in contrast to the 5 hour minimum for restricted animals.

[7] = Electrogenesis of various subcortical centers; assay type: in vivo; conditions: for EEG activity of the hippocampus: in vivo
Description: This study was conducted with test animals weighing between 2.6 and 2.8 kg, following the stereotaxic method of Monnier and Gangloff (Atlas et techniques stereotaxique pour le cerveau du lopin eveille, 1961, Elsevier Pub. Co.), permitting the stimulation of certain subcortical structures as well as a simultaneous detection and recording of their electrical activities, which were compared to that of reference cortical electrodes. In this study, the subcortical centers considered were the caudate nucleus, the dorsal hippocampus, the lateral thalamus, the mesenephalic reticular formation, and the hypothalamic reticular formation. Test compounds 1 and 4 were administered by the intragastric route with an identical dose of 7.5 mg/kg.
Spontaneous activity in the subcortical centers of the unanesthetized animals is characterized by desynchronized activity consisting of high amplitude and relatively slow rhythms (4 to 5 c/sec.), alternating with low amplitude rapid rhythms (12 to 13 c/sec.). Tracings from the hippocampus and caudate nucleus sometimes takes the form of bursts, which is less commonly the case from the thalamus. These may occur at the same time as bursts of rapid spikes arising from the frontal cortex. During periods of arousal, this desynchronized activity is followed by a synchronized theta rhythm (7 to 8 c/sec.) from the hippocampus and caudate nucleus and from the median thalamus, whereas the cortical and reticular electrical activities are transformed into ultra-rapid and low voltage rhythms (30μ volts).

[8] = Cortical and hippocampal arousal thresholds on stimulation of MRF, median thalamus and posterior hypothalamus; assay type: in vivo; conditions: 7.5 mg/kg intragastric
Description: The test animals in this study were prepared by the techniques described by Monnier and Gangloff under the preceding study (infra B, page 30). Stimulation consisted of a series of waves delivered at a frequency of 200 c/sec., lasting 0.3 m sec., with a total duration of the stimulus being 5 sec. These shocks were delivered by a Neurovar neurostimulator (Alvar Electronic) coupled with a CRC cathode oscilloscope (type OC 343). Cerebral electrical activity was recorded on a REEGA MINI HUIT electroencephalograph (Alvar Electronic). The test animals were kept in restraint cages in a relatively soundproof room.
The activity of compounds 1 and 4 was tested in a series of six test animals for each compound, with a single dose of 7.5 mg/kg administered by the intragastric route. In each animal, the arousal threshold was determined for two of the three structures tested so that for each compound, each of the three structures stimulated were tested four times.
In making the baseline tracing, the threshold voltage was determined by a finding that the duration of the arousal reaction produced by the 5-second stimulation exceeded the duration of the stimulation by at least 5 seconds, that is, for a minimum of 10 seconds.
The various thresholds were determined every 45 minutes after administration of the compounds, for a total period of four and one-half hours.
The critical value for raising of a threshold was fixed at 0.1 volts. This constituted the maximum variation recorded during 41/2 hours in the control animals.
The results were taken in two forms and then summarized. In the first result, each animal was observed, yielding the values for the thresholds recorded at each time interval as well as the ratios of the values obtained in each of the stimulated structures.

[9] = Potentiation of narcotic effect of Veronal; conditions: in vivo
[10] = Motor coordination in rats (rotarod, Dunham and Miya 1957); conditions: for TD50: rat, rotarod, po
[11] = Posterior hypothalamus stimulation

Compound	ED50 [1] [mg/kg]	Duration of effect [1]	Rotarod Test % of Animals With Unchanged Equilibrium ([2]; 1 mg/kg) [%]	Rotarod Test % of Animals With Unchanged Equilibrium ([2]; 3 mg/kg) [%]	changes in equilibrium / motor coordination [2]	ED50 [3] [mg/kg]	% Protected Animals ([3]; Time 90 min.) [%]	% Protected Animals ([3]; Time 120 min.) [%]	% Protected Animals ([3]; Time 180 min.) [%]	% Protected Animals ([3]; Time 240 min.) [%]	increase in CER ([4]; 1.25 mg/kg os) [%]	increase in CER ([4]; 5 mg/kg os)	reduction in postural tonus [5]	duration of the ECoG effect [6] [h]	first signs of sedation [6] [min]	duration of ECoG effects (three compounds compared) [6]	caudate nucleus spikes ([7]; 7.5 mg/kg intragastric)	thalamic rhythms ([7]; 7.5 mg/kg intragastric)	EEG activity of the hippocampus [7]	effect on arousal pathways (in words) [8]	also measured
C#CCN1C(=O)CN=C(c2ccccc2)c2cc(Cl)ccc21 [Compound 1, 7-chloro-2,3-dihydro-5-phenyl-1-propargyl-1H-1,4-benzodiazepin-2-one]	1.75	comparable	41.7	58.3	does not produce changes in motor activity or in equilibrium	10.6	48	46	37	10	~350	about 920%	slight reduction in the tonus	≤ 3	16	about 31/2	definite effect of compound 1 on the caudate nucleus	greater amplitude and lower frequency	slow and of high amplitude; also recorded: increase the amplitude of these activities and also reduce their frequency	preferentially reduces the excitability of the hypothalamo-cortical and hippocampal pathways; also recorded: moderately reduced in duration	median anxiolytic dose (AD50) compared with compound 4 ([1]; four-plate study): nearly three times less than that of compound 4; anxiolytic effect compared with compound 4 ([1]; in vivo): more effective anxiolytic effect than compound 4; % Protected Animals ([3]; 5 mg/kg/os, pentamethylenetetrazol 125 mg/kg s.c.): 10%; % Protected Animals ([3]; 10 mg/kg/os, pentamethylenetetrazol 125 mg/kg s.c.): 50%; % Protected Animals ([3]; 20 mg/kg/os, pentamethylenetetrazol 125 mg/kg s.c.): 80%; duration of protection against pentamethylenetetrazol compared with compounds 3 or 4 ([3]; rat, in vivo): protects against pentamethylenetetrazol for longer periods of time than compounds 3 or 4; activity in antagonizing tone-induced disruption compared with Compound 4 ([4]; in vivo): about twice as active as Compound 4; caudate nucleus bursts of rapid spikes, time of maximum periodicity ([7]; 7.5 mg/kg intragastric): 45 min; % of Mean Variation of arousal threshold, Cortex ([8]; MRF stimulation): +57%; % of Mean Variation of arousal threshold, Hippocampus ([8]; MRF stimulation): +50%; % of Mean Variation of arousal threshold, Cortex ([8]; Median Thalamus stimulation): +67%; % of Mean Variation of arousal threshold, Hippocampus ([8]; Median Thalamus stimulation): +73%; % of Mean Variation of arousal threshold, Cortex ([8]; Posterior Hippocampus): +83%; % of Mean Variation of arousal threshold, Hippocampus [8, 11]: +78%; narcotic effect of a minimal dose of Veronal [9]: potentiate the narcotic effect of a minimal dose of Veronal; % Uncoordinated Animals ([10]; 48 mg/kg/os): 25%; % Uncoordinated Animals ([10]; 68 mg/kg/os): 50%; % Uncoordinated Animals ([10]; 96 mg/kg/os): 75%; dose needed for same motor uncoordination as after Compound 3 or 4 ([10]; oral): about five times more; TD50 [10]: 67.9 mg/kg
C#CCN1C(=O)CN=C(c2ccccc2Cl)c2cc(Cl)ccc21 [Compound 4, 7-chloro-2,3-dihydro-5-(2-chlorophenyl)-1-propargyl-1,H-1,4-benzodiazepine-2-one]	5.5	comparable	50.0	8.3	degradation of motor coordination	8.5	37	18	0	0	~630	~1600%	slightly more pronounced effect	≤ 3	8	about 31/2	less distinguishable	greater amplitude and lower frequency	slow and of high amplitude; also recorded: increase the amplitude of these activities and also reduce their frequency	substantially raised the cortical and hippocampal arousal thresholds following stimulation of the reticular formation of the brain stem; also recorded: posterior hypothalamus appeared to be little affected; also recorded: moderately reduced in duration	usability of 4 plates test ([1]; over 3 mg/kg): caused motor activity to be so reduced that 4 plates test; % Protected Animals ([3]; 6 mg/kg/os, pentamethylenetetrazol 125 mg/kg s.c.): 20%; % Protected Animals ([3]; 8.5 mg/kg/os, pentamethylenetetrazol 125 mg/kg s.c.): 60%; % Protected Animals ([3]; 12 mg/kg/os, pentamethylenetetrazol 125 mg/kg s.c.): 70%; animals with no attempt to resume previous posture ([5]; 30 mg/kg, at 21/2 hours): one animal out of every three; duration of slowing of mesencephalic and hypothalamic reticular formation activity ([7]; 7.5 mg/kg intragastric): ≥ 135 min; % of Mean Variation of arousal threshold, Cortex ([8]; MRF stimulation): +311%; % of Mean Variation of arousal threshold, Hippocampus ([8]; MRF stimulation): +308%; % of Mean Variation of arousal threshold, Cortex ([8]; Median Thalamus stimulation): +67%; % of Mean Variation of arousal threshold, Hippocampus ([8]; Median Thalamus stimulation): +67%; % of Mean Variation of arousal threshold, Cortex ([8]; Posterior Hippocampus): +56%; % of Mean Variation of arousal threshold, Hippocampus [8, 11]: +60%; narcotic effect of a minimal dose of Veronal [9]: potentiate the narcotic effect of a minimal dose of Veronal; % Uncoordinated Animals ([10]; 12 mg/kg/os): 37.5%; % Uncoordinated Animals ([10]; 17 mg/kg/os): 50%; % Uncoordinated Animals ([10]; 24 mg/kg/os): 87.5%; Potency Against Comp. 1 ([10]; C.L. (3.09. 6.79), X^2 parallelism 0.005): 4.58; TD50 [10]: 14.9 mg/kg
